Assay results: patent US20200062710A1, “Method For Producing 3-(Pyridyl-2-Amino)Propionitrile And Analogues Thereof” (Nipppon Kayaku Kabushiki Kaisha, priority 2016, published 2020)

Experiments:
[1] = test system: Rice Brown Planthopper (Nilaparvata lugens); test: Pest control test (stem and leaf soaking treatment) to rice brown planthopper; type: in vivo; details: 800 ppm, rice seedlings soaked, 25° C., five days after treatment
Procedure: Biological Test Example 2: Pest Control Test (Stem and Leaf Soaking Treatment) to Rice Brown Planthopper (Nilaparvata lugens)
Ten rice seedlings were soaked in 20 mL of the test compound solution diluted to 800 ppm and air-dried. After air drying, the rice seedings were hold in a glass cylinder (inner diameter 4.5 cm×14 cm) with urethane and stood on the plastic cup in which 40 mL of water was put. The […] larva of rice brown planthopper was released there, covered with medicine package, and kept in a constant temperature room at 25° C. In five days after treatment, life and death were observed and the mortality was calculated.

[2] = test system: Twospotted Spider Mite (Tetranychus urticae); test: Pest control test (leaf soaking treatment) to twospotted spider mite; type: in vivo; details: 800 ppm, bean leaf with eggs soaked about 30 seconds, 25° C., seven days after treatment
Procedure: Biological Test Example 1: Pest Control Test (Leaf Soaking Treatment) to Twospotted Spider Mite (Tetranychus urticae)
A bean leaf was cut to a diameter of 3.5 cm and placed on absorbent cotton moistened with water. Five adult females of the twospotted spider mite were released on the bean leaf and laid eggs for 24 hours, and then the adults were removed. This bean leaf was soaked for about 30 seconds in 20 mL of the dilution solution of the test compound diluted to 800 ppm. After air-drying, the bean leaf was put in a plastic cup together with absorbent cotton, covered, and kept in a constant temperature room at 25° C. In seven days after treatment, life and death were observed and the ovicidal rate was calculated.

Row | SMILES | control effect (mortality) [1] [%] | pest control effect (ovicidal rate) [2] [%]
1 | N#CCCNc1ccccn1 [compound (1′), 3-(Pyridyl-2-amino)propionitrile] | 50 | 
2 | N#CCCN(C=O)c1ccccn1 [compound (4′), N-(2-cyanoethyl)-N-(2-pyridyl)formamide] |  | 100
